Assay results taken from patent US10028931B2, “Synergistic compositions for treating microbial infections” (UNIVERSITY OF ROCHESTER, priority 2014, dated 2018).
In brackets after ≈: the same amount, converted by molar mass.

test system: Staphylococcus aureus strain UAMS-1; assay: Antimicrobial susceptibility testing (MIC, broth microdilution); assay type: cell-based; details: Staphylococcus aureus, UAMS1, 18 h, S. aureus UAMS-1, Mueller Hinton broth, 37° C., read-out: MIC
Method: The RNase P inhibitors described herein were tested for antimicrobial activity toward Staphylococcus aureus strain UAMS-1. Individual wells of a 96-well microtiter plate were inoculated with ˜1×10^5 colony-forming units (CFU) of the indicated organism, containing two-fold increasing concentrations (from 0 to 256 μg mL^−1) of the indicated antibiotic or putative RnpA inhibitor, and incubated at 37° C. for 18 hours in Mueller Hinton broth. The MIC was defined as the lowest concentration of antibiotic in which there was no visible bacterial growth in the wells. Minimum bactericidal concentration testing was performed by enumerating the bacterial cells in each of the wells containing treatments at and above the MIC.

Row | Compound | MIC [µg/mL]
1 | Cc1ccccc1OCC(=O)NNC(=S)NC(=O)c1ccco1 [ST5522690] | 16 (≈ 48 µM)
2 | Cc1ccc(C(=O)NC(=S)NNC(=O)COc2ccc(C(C)C)cc2)o1 [MC-190044] | 32 (≈ 85.2 µM)
3 | Cc1occc1C(=O)NNC(=S)NC(=O)COc1ccc(Cl)cc1Cl [ST5523108] | 4 (≈ 9.94 µM)
4 | CC(C)c1ccc(OCC(=O)NNC(=S)NC(=O)c2cc3ccc(Cl)cc3[nH]2)cc1 [MC-190066] | 16 (≈ 36 µM)
5 | CCCc1ccc(OCC(=O)NNC(=S)NC(=O)c2ccco2)cc1 [ST5682783] | > 128
6 | Cc1ccc(OCC(=O)NNC(=S)NC(=O)c2ccc(Br)o2)c(C)c1 [ST5523326] | 8 (≈ 18.8 µM)
7 | CC(C)c1ccc(OCC(=O)NNC(=S)NC(=O)c2cc3cc(Cl)ccc3[nH]2)cc1 [MC-190064] | 256 (≈ 575 µM)
8 | CC(C)c1ccc(OCC(=O)NNC(=S)NC(=O)c2cccs2)cc1 [MC-190029] | 128 (≈ 339 µM)
9 | Cc1cccc(C)c1OCC(=O)NNC(=S)NC(=O)c1ccc(-c2ccccc2)cc1 [ST5523335] | 128 (≈ 295 µM)
10 | O=C(COc1ccc(Cl)cc1Br)NNC(=S)NC(=O)c1ccco1 [ST5525958] | 32 (≈ 74 µM)
11 | O=C(COc1ccc(-c2ccccc2)cc1)NNC(=S)NC(=O)c1ccc(Br)o1 [ST5524465] | 32 (≈ 67.5 µM)
12 | CC(C)c1ccc(OCC(=O)NNC(=S)NC(=O)c2ccccn2)cc1 [MC-190053] | 32 (≈ 85.9 µM)
13 | Cc1cc(OCC(=O)NNC(=S)NC(=O)c2ccc(Br)o2)ccc1Cl [ST5522821] | 16 (≈ 35.8 µM)
14 | O=C(NC(=S)NNC(=O)C1C[C@H]1c1ccccc1)c1ccco1 (some centres unmarked) [MC-190068] | 32 (≈ 97.2 µM)

molecular target: T1, RnpA (Staphylococcus aureus, UniProt P0A0H5); assay: RnpA mRNA degradation activity assay; assay type: biochemical; details: not given
T1 sequence (P0A0H5 1-117): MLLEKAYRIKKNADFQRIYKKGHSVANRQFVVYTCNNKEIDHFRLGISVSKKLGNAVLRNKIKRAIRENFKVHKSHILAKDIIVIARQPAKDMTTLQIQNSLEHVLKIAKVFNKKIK
Method: The RNase P inhibitors described herein were tested for activity toward RnpA mRNA degradation activity. Either 1 μg of total S. aureus RNA or 1 pmol of in vitro synthesized spa mRNA was incubated with 20 pmol RnpA at 37° C. for 15 to 30 min in a reaction buffer (50 mM Tris-HCl pH 8.0, 2 mM NaCl, 2 mM MgCl2) in the absence or presence of the indicated compound. Reactions were stopped by adding an equal volume of 2×RNA loading dye (95% formamide, 0.025% SDS, 0.025% bromophenol blue, 0.025% xylene cyanol FF, 0.5 mM EDTA), run on a denaturing 1.0% agarose-0.66 M formaldehyde gel and stained with ethidium bromide. RNA substrates and corresponding degradation products were visualized using a FluorChem 5500 system (Alpha Innotech; San Leandro, Calif.). The inhibitory effects of the test compounds were measured using Image J densitometry software (National Institutes of Health; Bethesda, Md.) to quantify the signal intensity of the RNA band(s) in the negative control (RNA alone), positive control (RnpA+RNA+DMSO), and experimental samples (RnpA+RNA+test compound). The percent enzyme inhibition of test compounds was calculated using the following equation: Percent inhibition=[(experimental signal-positive control)/(negative control signal-positive control signal)]*100.

Row | Compound | IC50 [µM]
15 | CC(C)c1ccc(OCC(=O)NNC(=S)NC(=O)c2cc3cc(Cl)ccc3[nH]2)cc1 [MC-190064] | > 500

same assay, conditions: RnpA mRNA degradation, gel densitometry; read-out: RnpA IC50

Row | Compound | IC50 [µM]
16 | Cc1ccccc1OCC(=O)NNC(=S)NC(=O)c1ccco1 [ST5522690] | > 500
17 | Cc1ccc(C(=O)NC(=S)NNC(=O)COc2ccc(C(C)C)cc2)o1 [MC-190044] | 30
18 | Cc1occc1C(=O)NNC(=S)NC(=O)COc1ccc(Cl)cc1Cl [ST5523108] | > 500
19 | CC(C)c1ccc(OCC(=O)NNC(=S)NC(=O)c2cc3ccc(Cl)cc3[nH]2)cc1 [MC-190066] | 250
20 | CCCc1ccc(OCC(=O)NNC(=S)NC(=O)c2ccco2)cc1 [ST5682783] | > 500
21 | Cc1ccc(OCC(=O)NNC(=S)NC(=O)c2ccc(Br)o2)c(C)c1 [ST5523326] | 380
22 | CC(C)c1ccc(OCC(=O)NNC(=S)NC(=O)c2cccs2)cc1 [MC-190029] | > 500
23 | Cc1cccc(C)c1OCC(=O)NNC(=S)NC(=O)c1ccc(-c2ccccc2)cc1 [ST5523335] | > 500
24 | O=C(COc1ccc(Cl)cc1Br)NNC(=S)NC(=O)c1ccco1 [ST5525958] | > 500
25 | O=C(COc1ccc(-c2ccccc2)cc1)NNC(=S)NC(=O)c1ccc(Br)o1 [ST5524465] | 45
26 | CC(C)c1ccc(OCC(=O)NNC(=S)NC(=O)c2ccccn2)cc1 [MC-190053] | 100
27 | Cc1cc(OCC(=O)NNC(=S)NC(=O)c2ccc(Br)o2)ccc1Cl [ST5522821] | 35
28 | O=C(NC(=S)NNC(=O)C1C[C@H]1c1ccccc1)c1ccco1 (some centres unmarked) [MC-190068] | > 500

molecular target: T2, S. aureus RNase P (RnpA+rnpB) (Staphylococcus aureus, UniProt P0A0H5); assay: RNase P activity assay (precursor tRNA processing); assay type: biochemical; details: ptRNATyr processing, gel densitometry; read-out: RNase P IC50
T2 sequence (P0A0H5 1-117): T1 sequence (P0A0H5 1-117)
Method: The RNase P inhibitors described herein were tested for activity toward RNase P. S. aureus RNase P activity assays were performed in low salt buffer (50 mM Tris-HCl pH 8.0, 5 mM MgCl2) or in high salt buffer (50 mM Tris-HCl pH 8.0, 100 mM MgCl2, 800 mM NH4Cl). For all reactions, ptRNATyr, tRNATyr, or rnpB RNA species were first denatured by heating to 95° C. for 3 minutes, and then slowly cooling the mixtures to room temperature. RNase P was reconstituted by mixing an equal molar ratio of RnpB and RnpA for 15 min at 37° C. Precursor tRNA processing reactions (20 μL) were performed by mixing 1.25 pmol RNase P (RnpA+rnpB), RnpA, or rnpB with an equal volume of 2× low salt buffer or 2× high salt buffer and 10 pmol ptRNATyr. Mixtures were incubated for 15 min at 37° C. Reactions were stopped by adding 20 μL 2×RNA loading dye (95% formamide, 0.025% SDS, 0.025% bromophenol blue, 0.025% xylene cyanol FF, 0.5 mM EDTA), and 30 μL of each sample was electrophoresed in a 7 M urea/8% polyacrylamide gel and was then stained with ethidium bromide (0.5 μg/ml). Where indicated, reactions were repeated in the presence of the indicated amount of putative RnpA inhibitors or dimethyl sulfoxide (DMSO). A FluorChem 5500 imaging system was used to visualize the RNA, and the relative abundance of the mature tRNATyr band in the positive control (RNase P+DMSO) or in samples containing test compounds was measured using Image J densitometry software (NIH). The percent RNase P activity was then calculated using the following calculation: (test compound tRNATyr signal/positive control tRNATyr signal)*100.

Row | Compound | IC50 [µM]
29 | Cc1ccccc1OCC(=O)NNC(=S)NC(=O)c1ccco1 [ST5522690] | > 500
30 | Cc1ccc(C(=O)NC(=S)NNC(=O)COc2ccc(C(C)C)cc2)o1 [MC-190044] | 105
31 | Cc1occc1C(=O)NNC(=S)NC(=O)COc1ccc(Cl)cc1Cl [ST5523108] | 75
32 | CC(C)c1ccc(OCC(=O)NNC(=S)NC(=O)c2cc3ccc(Cl)cc3[nH]2)cc1 [MC-190066] | < 50
33 | CCCc1ccc(OCC(=O)NNC(=S)NC(=O)c2ccco2)cc1 [ST5682783] | 65
34 | Cc1ccc(OCC(=O)NNC(=S)NC(=O)c2ccc(Br)o2)c(C)c1 [ST5523326] | 75
35 | CC(C)c1ccc(OCC(=O)NNC(=S)NC(=O)c2cc3cc(Cl)ccc3[nH]2)cc1 [MC-190064] | 100
36 | CC(C)c1ccc(OCC(=O)NNC(=S)NC(=O)c2cccs2)cc1 [MC-190029] | 380
37 | Cc1cccc(C)c1OCC(=O)NNC(=S)NC(=O)c1ccc(-c2ccccc2)cc1 [ST5523335] | 100
38 | O=C(COc1ccc(Cl)cc1Br)NNC(=S)NC(=O)c1ccco1 [ST5525958] | 125
39 | O=C(COc1ccc(-c2ccccc2)cc1)NNC(=S)NC(=O)c1ccc(Br)o1 [ST5524465] | 65
40 | CC(C)c1ccc(OCC(=O)NNC(=S)NC(=O)c2ccccn2)cc1 [MC-190053] | 1
41 | Cc1cc(OCC(=O)NNC(=S)NC(=O)c2ccc(Br)o2)ccc1Cl [ST5522821] | 220
42 | O=C(NC(=S)NNC(=O)C1C[C@H]1c1ccccc1)c1ccco1 (some centres unmarked) [MC-190068] | 370

test system: S. aureus strain UAMS-1; assay: Fractional Inhibitory Concentration testing with mupirocin; assay type: cell-based; details: combined with mupirocin, S. aureus UAMS-1, Mueller Hinton broth, 18 hours; synergistic FIC≤0.5
Method: The RNase P inhibitors described herein were tested for Fractional Inhibitory Concentration (FIC) in the presence of mupirocin. FIC testing was performed to determine the combined effects of mupirocin and the RnpA inhibitors as described herein. Individual wells of a 96-well microtiter plate were inoculated with 1×10^5 CFU of S. aureus strain UAMS-1 in a Mueller Hinton broth. Each row of the plate contained increasing concentrations of RNPA1000 or RNPA2000 (two-fold increments; 0, 0.004, 0.008, 0.016, 0.03, 0.06, 0.125, 0.25, 0.5, 1, 2, or 4×MIC), whereas each column contained increasing concentrations of the indicated antibiotic (two-fold increments; 0, 0.06, 0.125, 0.25, 0.5, 1, 2, or 4×MIC). Plates were incubated for 18 hours at 37° C., and growth was detected by the unaided eye. The FIC was determined using the following formula: (MIC of Drug A in Combination/MIC of Drug A Alone)+(MIC of Drug B in Combination/MIC of Drug B Alone)=FIC. A synergistic interaction was defined as an FIC value≤0.5, no interaction as an FIC of 0.5-4, or an antagonistic interaction FIC>4.

Row | Compound | FIC with Mupirocin
43 | Cc1ccccc1OCC(=O)NNC(=S)NC(=O)c1ccco1 [ST5522690] | 1
44 | Cc1ccc(C(=O)NC(=S)NNC(=O)COc2ccc(C(C)C)cc2)o1 [MC-190044] | 0.49
45 | Cc1occc1C(=O)NNC(=S)NC(=O)COc1ccc(Cl)cc1Cl [ST5523108] | 0.49
46 | CC(C)c1ccc(OCC(=O)NNC(=S)NC(=O)c2cc3ccc(Cl)cc3[nH]2)cc1 [MC-190066] | 0.75
47 | CCCc1ccc(OCC(=O)NNC(=S)NC(=O)c2ccco2)cc1 [ST5682783] | 0.31
48 | Cc1ccc(OCC(=O)NNC(=S)NC(=O)c2ccc(Br)o2)c(C)c1 [ST5523326] | 0.375
49 | CC(C)c1ccc(OCC(=O)NNC(=S)NC(=O)c2cc3cc(Cl)ccc3[nH]2)cc1 [MC-190064] | 0.53
50 | CC(C)c1ccc(OCC(=O)NNC(=S)NC(=O)c2cccs2)cc1 [MC-190029] | 0.5
51 | Cc1cccc(C)c1OCC(=O)NNC(=S)NC(=O)c1ccc(-c2ccccc2)cc1 [ST5523335] | 0.375
52 | O=C(COc1ccc(Cl)cc1Br)NNC(=S)NC(=O)c1ccco1 [ST5525958] | 0.75
53 | O=C(COc1ccc(-c2ccccc2)cc1)NNC(=S)NC(=O)c1ccc(Br)o1 [ST5524465] | 0.625
54 | CC(C)c1ccc(OCC(=O)NNC(=S)NC(=O)c2ccccn2)cc1 [MC-190053] | 0.49
55 | Cc1cc(OCC(=O)NNC(=S)NC(=O)c2ccc(Br)o2)ccc1Cl [ST5522821] | 0.75
56 | O=C(NC(=S)NNC(=O)C1C[C@H]1c1ccccc1)c1ccco1 (some centres unmarked) [MC-190068] | 0.5
